Measurements as given in ChEMBL document CHEMBL1201862, “PubChem BioAssay data set” (2004).
Active and inactive are the calls of the source.

How the values were obtained:
[1] = intracellular Trypanosoma cruzi inhibitors in host cells – cell-based, plate reader, cherry-pick samples, set 3, dose response (AID 651818); assay type: functional;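 further: compounds incubated with infected cells for about four days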
HEK293 [2] = assay: cells; assay type: functional, cell-based; conditions: Homo sapiens
HEK293 [3] = assay: NOD2 signaling inhibitors in MDP-stimulated cells, cell-based, uHTS, luminescence (AID 2001); assay type: functional; conditions: Homo sapiens
HEK293 [4] = assay: cells; assay type: functional, cell-based; conditions: Homo sapiens; remark: listed apart in the source
[5] = Luminescence Cell-Based Dose Retest to Confirm Inhibitors of Cancer Stem Cells. [Related pubchem assays (depositor defined):AID2717, AID2721]; assay type: functional; conditions: Homo sapiens
HEK293 [6] = assay: NOD1 signaling inhibitors, primary screen, cell-based, luminescence, uHTS (AID 1578); assay type: functional; conditions: Homo sapiens
Protein Wnt-3a = Protein Wnt-3a (Mus musculus, UniProt P27467); assay: Wnt3a-driven reporter signaling inhibition, dose response, selectivity assay for Gli-SUFU antagonist project, Wnt-LIGHT cells, luminescence (AID 651570); assay type: functional; conditions: read-out: IC50_Mean;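 further: Wnt-LIGHT reporter cells stimulated with conditioned medium from Wnt3a-producing cells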
[7] = cytotoxicity toward DRD oncogenic fibroblasts, dose response, cell-based, non-viral oncogenic, luminescence (AID 1934); assay type: functional; conditions: Homo sapiens
[8] = cytotoxicity in HEK-293T cells, dose response, cytotoxicity control for TCR NF-kB inhibitor project, luminescence, T-cell screen hits (AID 489026); assay type: functional, cell-based;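 further: cells exposed to compound about 14 hours before the viability readout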
BJ [9] = assay: cytotoxicity toward BJ-TERT fibroblasts, dose response, cell-based, RAS-independent, luminescence (AID 1933); assay type: functional; conditions: Homo sapiens
BJ [10] = assay: cells; assay type: functional, cell-based; conditions: Homo sapiens
BJ [11] = assay: cytotoxicity toward BJ-TERT-LT-ST fibroblasts, dose response, cell-based, RAS-independent, luminescence (AID 1935); assay type: functional; conditions: Homo sapiens;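 further: BJ fibroblasts immortalized with TERT plus LT and ST oncogenes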
Cytochrome P450 3A4 = Cytochrome P450 3A4 (Homo sapiens, UniProt P08684); conditions: Potency;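 further: confirmatory qHTS run detecting inhibitors and substrates of CYP3A4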
INS1 = assay: beta cell apoptosis inhibitors, cytokine rescue, dose response, luminescence, retest (AID 449756); assay type: functional, cell-based; conditions: Rattus norvegicus;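 further: cell death triggered by IL-1 beta plus TNF-alpha plus IFN-gamma mixture; protective hits raise ATP signal compared with cytokine alone wells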
[12] = target: T1, Short transient receptor potential channel 4 (Mus musculus, UniProt Q9QUQ5); assay: mouse TRPC4 channel inhibitors, dose response, cell-based, HEK293 TRPC4/mu-opioid, Fluo-4 calcium (AID 434942); assay type: functional;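 further: potency of inhibitors blocking the TRPC4 calcium response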
T1 sequence (Q9QUQ5 whole entry): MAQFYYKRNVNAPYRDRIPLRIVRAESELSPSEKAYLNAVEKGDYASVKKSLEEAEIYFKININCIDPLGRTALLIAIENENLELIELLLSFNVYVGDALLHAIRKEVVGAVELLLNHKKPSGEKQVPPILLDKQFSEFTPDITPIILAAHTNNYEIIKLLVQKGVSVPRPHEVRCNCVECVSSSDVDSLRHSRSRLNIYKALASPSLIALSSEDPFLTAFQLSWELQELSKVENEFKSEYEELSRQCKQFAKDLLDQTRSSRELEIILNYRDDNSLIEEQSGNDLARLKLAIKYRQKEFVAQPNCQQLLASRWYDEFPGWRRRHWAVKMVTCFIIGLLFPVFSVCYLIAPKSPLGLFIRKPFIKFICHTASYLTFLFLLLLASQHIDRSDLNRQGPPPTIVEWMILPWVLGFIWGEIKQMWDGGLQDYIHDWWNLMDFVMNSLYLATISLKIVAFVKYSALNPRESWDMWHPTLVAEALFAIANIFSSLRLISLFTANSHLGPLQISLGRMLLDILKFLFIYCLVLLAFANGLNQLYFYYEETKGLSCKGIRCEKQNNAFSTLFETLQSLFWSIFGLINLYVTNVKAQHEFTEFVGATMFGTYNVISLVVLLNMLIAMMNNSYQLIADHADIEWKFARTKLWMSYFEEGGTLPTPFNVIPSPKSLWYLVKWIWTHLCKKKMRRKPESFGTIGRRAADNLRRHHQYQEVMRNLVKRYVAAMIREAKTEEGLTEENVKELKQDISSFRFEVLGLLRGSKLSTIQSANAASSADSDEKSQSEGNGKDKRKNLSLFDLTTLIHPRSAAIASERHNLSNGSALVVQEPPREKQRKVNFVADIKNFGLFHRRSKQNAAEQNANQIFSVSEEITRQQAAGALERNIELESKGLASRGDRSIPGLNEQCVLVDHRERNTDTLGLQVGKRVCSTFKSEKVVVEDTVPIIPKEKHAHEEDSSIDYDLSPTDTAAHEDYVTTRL

[13] = Shn3 3'UTR reporter inhibitors, dose response, cell-based, Clone20 osteoblasts, firefly luciferase, cherry-picked (AID 624132); assay type: functional;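 further: firefly luciferase luminescence from reporter carrying the Shn3 3'UTR in osteoblasts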
[14] = control 3'UTR Renilla luciferase suppression, dose response, counter-screen for Shn3 inhibitor project, cell-based, Clone20-Shn3RL, cherry-picked (AID 624133); assay type: functional

Sequence of Protein Wnt-3a (P27467 whole entry): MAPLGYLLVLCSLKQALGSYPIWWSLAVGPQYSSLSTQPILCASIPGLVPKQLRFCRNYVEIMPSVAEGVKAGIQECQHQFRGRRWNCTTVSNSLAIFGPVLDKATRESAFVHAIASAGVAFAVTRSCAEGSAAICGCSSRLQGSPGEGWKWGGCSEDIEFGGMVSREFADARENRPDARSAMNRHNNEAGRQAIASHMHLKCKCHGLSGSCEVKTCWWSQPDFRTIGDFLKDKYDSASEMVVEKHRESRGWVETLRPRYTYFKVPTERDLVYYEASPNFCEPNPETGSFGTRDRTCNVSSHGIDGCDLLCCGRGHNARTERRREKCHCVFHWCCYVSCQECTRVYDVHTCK
Sequence of Cytochrome P450 3A4 (P08684 whole entry): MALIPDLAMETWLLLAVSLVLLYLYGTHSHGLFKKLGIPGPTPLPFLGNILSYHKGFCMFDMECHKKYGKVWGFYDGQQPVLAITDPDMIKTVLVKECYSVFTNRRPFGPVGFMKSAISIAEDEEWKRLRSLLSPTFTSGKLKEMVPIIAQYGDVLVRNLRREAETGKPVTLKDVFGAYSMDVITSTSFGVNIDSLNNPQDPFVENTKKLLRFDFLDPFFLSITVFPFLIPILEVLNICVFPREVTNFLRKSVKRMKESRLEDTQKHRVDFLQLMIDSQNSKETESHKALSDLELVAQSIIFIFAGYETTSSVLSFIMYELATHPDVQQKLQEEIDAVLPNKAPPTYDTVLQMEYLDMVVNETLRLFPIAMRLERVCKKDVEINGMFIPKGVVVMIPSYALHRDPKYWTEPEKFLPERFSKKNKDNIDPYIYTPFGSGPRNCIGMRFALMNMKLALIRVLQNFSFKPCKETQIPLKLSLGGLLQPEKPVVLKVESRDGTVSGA

For `C[C@@H]1CN([C@@H](C)CO)C(=O)Cc2cc(NC(=O)Nc3cccc4ccccc34)ccc2O[C@@H]1CN(C)Cc1ccc(Cl)c(Cl)c1`, the AC50 [1] was 3.21 µM (active).
With `Cc1nc(C2CCC3C4CCC5=CC(=O)CC[C@]5(C)C4CC[C@]23C)cs1` (stereo partly drawn) the IC50 (HEK293 [2]) was 3.42 µM (active), the IC50 (HEK293 [3]) was 3.56 µM (active) and the IC50 (HEK293 [4]) was 9.14 µM (active). For the same molecule, the AC50 [5] was 6.32 µM (active) and the EC50 (HEK293 [6]) was 2.24 µM (active).
In the case of `Cn1nc(CC(=O)NCc2ccc(C(F)(F)F)cc2)c2ccccc2c1=O`, the IC50 (Protein Wnt-3a) is reported as 1.09 µM (active).
For `C[C@H]1CN([C@@H](C)CO)C(=O)c2cccc(NC(=O)C3CC3)c2O[C@@H]1CN(C)Cc1ccc(Oc2ccccc2)cc1`, the AC50 [1] was 3.64 µM (active).
With `CCCC(=O)Nc1nc2ccc(NC(=O)c3c(F)c(F)c(OC)c(F)c3F)cc2s1` the EC50 [7] was 2.2 µM (active), the IC50 [8] was > 80 µM (inactive) and the EC50 (BJ [9]) was 4.47 µM (active). For the same molecule, the AC50 [5] was 0.367 µM (active), the EC50 (BJ [10]) was > 150 µM (not active) and the EC50 (BJ [11]) was 77.5 µM (inconclusive).
In the case of `COC(C1CCCCC1)C(C)C(OCc1cccc(Br)c1)C(C)CO` (stereo not drawn), the AC50 (Cytochrome P450 3A4) is reported as 3.16 µM (inconclusive).
With `COCCNc1nc2c(c(=O)n(C)c(=O)n2C)n1Cc1cccc(C(F)(F)F)c1` the IC50 (Protein Wnt-3a) was 5.24 µM (active) and the AC50 (INS1) was 6.6 µM (active).
For `COC(=O)CC1C(C)(C)C(OC(C)=O)C2CC3=C4CC(=O)OC(c5ccoc5)[C@]4(C)CCC3[C@@]1(C)C2=O` (stereo partly drawn), the AC50 (Cytochrome P450 3A4) was 1.58 µM (inconclusive).
For `C/C(=N\Nc1ccc(Cl)nn1)c1ccccc1O`, the IC50 (Protein Wnt-3a) was 50 µM (inactive).
With `NC(=O)c1nsc(C(=O)N(Cc2ccccc2F)C(C(=O)NCC2CCCO2)c2ccc(F)cc2)c1N` (stereo not drawn) the EC50 [12] was 0.473 µM (active).
With `COc1cc(/C=N/Nc2nc3c(c(=O)n(C)c(=O)n3C)n2Cc2ccccc2)ccc1OC(=O)c1ccco1` the IC50 (HEK293 [2]) was 3.73 µM (active), the IC50 (HEK293 [3]) was 5.98 µM (active) and the IC50 (HEK293 [4]) was 12.3 µM (active). For the same molecule, the EC50 (HEK293 [6]) was 5.22 µM (active).
In the case of `O=C(c1ccc(Cl)cc1)C1CCCN(C2CCSCC2)C1` (stereo not drawn), the EC50 [12] is reported as 0.531 µM (active).
For `Cc1cccc(CCN2C(N(C)C)=NC[C@@H]2CC(C)C)c1`, the AC50 [13] was 1.45 µM (active), the IC50 (Protein Wnt-3a) was 9.13 µM (active) and the AC50 [14] was 8.04 µM (active).
